Tested on: Saccharomyces cerevisiae ABC16-Green Monster
Assay: growth inhibition at single dose (up to 150 µM), below the 70% cut-off for dose-response; higher = more potent
Conditions: 18 h; 30 °C; YPD
In short: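 Values are percent growth inhibition of drug-sensitive S. cerevisiae ABC16-Green Monster cells. Cells grown overnight in YPD at 30 °C were diluted to log phase (OD600 0.1–0.2), and each library compound was added at a single dose of 150 µM to 200 µl culture per well in 96-well plates, in biological duplicates, beside untreated cultures. OD600 was read at 0 h and after 18 h at 30 °C, and compounds under 70% in both replicates were not taken to dose-response.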

SMILES	growth inhibition at single dose
N#Cc1ccnc(N2CCN(C(=O)c3cccc(-n4cccc4)c3)CC2)c1	< 70%
CC(C)N=c1cc2n(-c3ccc(Cl)cc3)c3ccccc3nc-2cc1Nc1ccc(Cl)cc1	< 70%
Cc1cc(=O)nc(N/N=C/c2c(C)nn(-c3ccccc3Cl)c2Cl)[nH]1	< 70%
CC(Nc1ncnc2sccc12)c1ccc(F)cc1 (configuration not stated)	< 70%
Cc1cc(C(=O)Nc2ccc(Cl)cc2)c(C)n1-c1ccccc1	< 70%
Cc1nn(C)c(C)c1NS(=O)(=O)c1c(Cl)cc(-c2ccnc(N3CCNCC3)c2)cc1Cl	< 70%
CCCN(CCC)CC(O)COc1ccccc1C(=O)Nc1ccccc1 (configuration not stated)	< 70%
CS(=O)(=O)c1ccc(C(=O)N(CC2CCCO2)c2nc3ccccc3s2)cc1[N+](=O)[O-] (configuration not stated)	< 70%
Nc1ccc(-c2nc3cc(Cc4ccc5[nH]c(-c6ccc(N)cc6)nc5c4)ccc3[nH]2)cc1	< 70%
S=c1n(CN2CCN(c3ccccc3Cl)CC2)nc(-c2cccs2)n1Cc1ccccc1	< 70%
CCc1ccc([C@@H]2C[C@H](C(F)(F)F)n3ncc(C(=O)NCc4ccc(OC)cc4)c3N2)cc1	< 70%
Cc1cc(C)c2nc(N3CCC(C(=O)NCCCN4CCC(N5CCCCC5)CC4)CC3)sc2c1	< 70%
COc1ccc(C=C2SC(=N)N(c3ccccc3OC)C2=O)cc1	< 70%
COC(=O)c1cc(C(=O)OC)cc(-n2c(C)cc(C(=O)Cn3ncc(Cl)c(Cl)c3=O)c2C)c1	< 70%
CCCCCCOC(=O)C1=C(C)NC(=O)NC1c1ccccc1F (configuration not stated)	< 70%
O=C(Nc1ccc(-c2nc3cc4ccccc4cc3[nH]2)cc1)c1cccc(Br)c1	< 70%
CCc1nn(C)c(C(=O)NCc2ccc(Oc3ccc(C)cc3)cc2)c1Cl	< 70%
CC(C)(C)c1ccc(Oc2ccc(N)cc2)cc1	< 70%
COc1cc2c(cc1OC)CN(C(=O)c1ccc(OCC(F)(F)F)nc1)CC2	< 70%
CC1CN(C(=O)c2sc3ccccc3c2Cl)CC(C)O1 (configuration not stated)	< 70%
CCC(Sc1nc2ccccc2o1)C(=O)Nc1nnc(C)s1 (configuration not stated)	< 70%
CC(C)c1ccc2c(c1)/C(=N/NC(=O)c1ccccc1F)C(=O)N2	< 70%
O=C(NC1CCN(c2ccc(S(=O)(=O)C(F)(F)F)cc2)CC1)C1CC1	< 70%

SMILES	growth inhibition at single dose
O=C(OCc1ccccc1)N1CCC(c2cc(-c3ccncc3)c(-c3ccc(F)cc3)[nH]2)CC1	< 70%
C[C@H]1COc2c(N3CCN(C)CC3)c(F)cc3c(=O)c(C(=O)O)cn1c23	< 70%
c1ccc(-c2ccc(-c3nc4ccccc4[nH]3)cc2)cc1	< 70%
COc1ccc2c(=O)cc(C(Cl)(Cl)Cl)oc2c1	< 70%
CCc1nc2ccccc2n1CC(O)COc1cc(C)ccc1Cl (configuration not stated)	< 70%
Nc1ncc(-c2cn[nH]c2)cc1-c1nc2cc(Cl)cnc2[nH]1	< 70%
Cc1cc(N(C)C)nc(Nc2ccc(NC(=O)Nc3ccccc3)cc2)n1	< 70%
Cc1ccc(S(=O)(=O)c2c(COC(=O)c3cccc(C)c3)c(-c3ccccc3)nn2C)cc1	< 70%
O=C(Nc1cccc(-c2ccc(NCCCN3CCCC3)nc2)c1)c1ccccc1	< 70%
CCOc1ccc2cc(-c3nn(CC4CCN(C)CC4)c4ncnc(N)c34)ccc2c1	< 70%
COc1ccc(-c2nc(-c3cccc(NC(=O)Cc4ccc(F)cc4)c3)no2)cc1OC	< 70%
Cc1nn2c(=O)c(Cc3ccccc3)c(C)[nH]c2c1-c1ccc(F)cc1	< 70%
Cc1cc(C)n(-c2ccc(NC(=O)C3(c4ccccc4)CC3)cn2)n1	< 70%
Cc1nn(Cc2ccccc2)c(Cl)c1/C=C/C(=O)OC(C)C(=O)N1CCCC1 (configuration not stated)	< 70%
Cc1cc(C(=O)Cn2nnc3ccccc3c2=O)c(C)n1-c1ccccc1	< 70%
CC(C)(C)CN1C(=O)C(c2ccccc2)(c2ccccc2)N=C1N	< 70%
CC(Nc1ccc(Oc2cccc(F)c2)cc1)C(=O)N1CCNC1=O (configuration not stated)	< 70%
O=C(Nc1ccc(N2CCCCCC2)cc1)c1ccc[nH]1	< 70%
O=C(N/N=C/c1ccc(O)cc1O)c1ccc[n+]([O-])c1	< 70%
Cc1cccc(N2C(=O)C3C(C2=O)C2(c4ccccc4)C(=O)C3(c3ccccc3)C(c3ccc4c(c3)OCO4)=C2c2ccc3c(c2)OCO3)c1 (configuration not stated)	< 70%
COc1cccc(CC(=O)N2CCC(n3c(C)nc4ccc(F)cc43)CC2)c1	< 70%
Cc1ccc(-c2cnn3c(N4CCCC4)cc(C)nc23)cc1	< 70%
O=C(Nc1ccc(N2CCOCC2)nc1)c1ccc(S(=O)(=O)N2CCCc3ccccc32)cc1	< 70%

SMILES	growth inhibition at single dose
COc1cc2c3cc1Oc1c(OC)c(OC)cc4c1C(Cc1ccc(O)c(c1)Oc1ccc(cc1)CC3N(C)CC2)N(C)CC4 (configuration not stated)	< 70%
CCOc1cc2c(cc1OCC)C(c1cc(Cl)ccc1O)NCC2 (configuration not stated)	< 70%
O=C(Nc1nc2ccc(Oc3ccccc3)cc2s1)C1=COCCO1	< 70%
CN(C)c1nc(N)nc(CN(Cc2nc(N)nc(N(C)C)n2)C23CC4CC(CC(C4)C2)C3)n1	< 70%
c1ccc(Nc2nc(-c3ccc4c(c3)OCCO4)cs2)nc1	< 70%
O=C(NC1CCN(Cc2ccccc2)CC1)c1cc2nc(-c3ccc(Cl)s3)cc(C(F)(F)F)n2n1	< 70%
COc1ccccc1NC(=O)NCc1nc(-c2ccccc2)c[nH]1	< 70%
CCOc1ccc(C=Cc2nc(=O)c3ccccc3o2)cc1	< 70%
CC(=O)NC(C)CCc1ccc(C(=O)Cn2ncc(Cl)c(Cl)c2=O)cc1 (configuration not stated)	< 70%
CN(C)CC(C)(C)CNc1nn2cc(-c3ccccc3)nc2s1	< 70%
CC(C)NCC(=O)Nc1cccc(C(=O)Nc2cccc(C(F)(F)F)c2)c1	< 70%
CCN(CC)c1ccc(NC(=O)c2cccs2)cc1	< 70%
CCOC(=O)c1nn(CCc2ccccc2)c2c1CN(C(=O)c1cc(C)n[nH]1)CC2	< 70%
COc1cc(C(=O)c2c(N)c(C#N)cn3c2nc2ccccc23)cc(OC)c1OC	< 70%
CCOC(=O)CSCc1noc(COc2ccc(Cl)cc2Cl)n1	< 70%
N#Cc1nc(Cc2cccc3ccccc23)oc1N1CCN(C(c2ccccc2)c2ccccc2)CC1	< 70%
Cc1cc2ccccc2n1CC(=O)N1CC(C(=O)N2CCCCC2)Oc2ccccc21 (configuration not stated)	< 70%
CN1CCN(c2ccc(Nc3c4ccccc4nc4ccccc34)cc2)CC1	< 70%
CC(=O)c1c(C)[nH]c(C(=O)OCCOc2ccccc2)c1C	< 70%
FC(F)(F)c1nnc2ccc(Cl)nn12	< 70%
Cc1ccc(C(NCC(=O)Nc2sccc2C(N)=O)c2cccs2)cc1 (configuration not stated)	< 70%

— the supplement of paper PMC8837787
